Results reported in patent publication US8597922B2, “Methods and compositions for producing olefins” (LS9, Inc., priority 2007, dated 2013).

Experiments:
[1] = system: ATCC 8456 cell free extract; test: Conversion of free fatty acids into α-olefins by ATCC 8456 cell free extract; type: biochemical, Jeotgalicoccus sp. ATCC 8456; conditions: for α-olefin formed from the fatty acid by cell free extract: 1 mM free fatty acid salt, room temperature, 3 h
Description: A cell free extract of ATCC 8456 was used to convert free fatty acids into α-olefins. The cell free extract was generated using the following procedure: ATCC 8456 cells were grown in TSBYE medium (3% Tryptic Soy Broth+0.5% Yeast Extract) at 30° C. for 24 h with shaking. The cells were then pelleted from the culture by centrifuging at 3,700 rpm for 20 min. The cell pellet was then resuspended in 50 mM Tris buffer pH 7.5 with 0.1 M NaCl and 2.0 mM dithiothreitol to a concentration of 0.1 g/mL cells. To this cell slurry, 200 units/mL of lysostaphin (Sigma) were added on ice. The cell lysis reaction was allowed to proceed for 30 min. The cells were then sonicated at 12 W on ice for three cycles of 1.5 sec of sonication followed by 1.5 sec of rest. Sonication lasted for a total of 9 sec. This procedure was repeated 5 times with a 1 min interval between each sonication cycle. The lysed cells were then centrifuged at 12,000 rpm for 10 min to pellet the cell debris. The supernatant (i.e., cell free extract) was then removed and used for the conversion of free fatty acids to α-olefins.
First, a 5% stock solution of sodium or potassium stearate was made in 1% Tergitol solution (Sigma, St. Louis, Mo.). Next, 6 μL of the stock solution was added to 1 mL of the cell free extract at room temperature to obtain a final concentration of 1 mM free fatty acid salt. The reaction was conducted at room temperature for 3 h. The α-olefins were recovered by adding 200 μL of ethyl acetate to the mixture, vortexing briefly, centrifuging briefly, and then removing the organic phase. The α-olefins were detected using GC/MS.
In sample 1 (TIC1; black line in FIG. 5), no stearic acid was added to the cell free extract. In sample 2 (TIC3; blue line in FIG. 5), the cell free extract was replaced with 50 mM Tris pH 7.5 buffer with 0.1 M sodium chloride to which stearic acid was added. In sample 3 (TICS; red line in FIG. 5), stearic acid was added to the cell free extract. The peak at 7.62 min had the same retention time and the same mass spectra as a 1-heptadecene standard (Sigma). When eicosanoic acid was added under similar conditions, 1-nonadecene was formed.
When the cell free extract was supplemented with several co-factors in 1 mM concentrations, no increase in α-olefin synthesis was observed. The co-factors examined were NAD+, NADP+, NADH, NADPH, FADH2, SAM, ATP, and CoA. In addition, Mg^2+ was examined at a 10 mM concentration. The co-factor requirement was also tested by dialyzing the cell free extract with a 10 kDa cut-off membrane for 1.5 h in a volume 200-fold greater than the cell extract volume using a dialysis buffer: 50 mM Tris, pH 7.5 with 0.1 M sodium chloride. No decrease in α-olefin synthesis was observed after dialysis. Additionally, no decrease in α-olefin synthesis was observed when 10 mM EDTA pH 7.5 was added to the reaction mixture.

ORF880 = test: In vitro reaction rates of purified ORF880 with different fatty acid substrates; type: biochemical, Jeotgalicoccus sp. ATCC8456; conditions: 1.0 μM ORF880, 200 μM fatty acid salt, pH 7.2, room temperature, between 20 min and 47 min
Description: The genomic DNA encoding Jeotgalicoccus sp. ATCC8456_orf880 was cloned into the NdeI and XhoI sites of vector pET15b (Novagen) under the control of the T7 promoter for expression in and purification from E. coli. This plasmid expressed an N-terminal His-tagged version of 8456_orf880.
An E. coli BL21 strain (DE3) (Invitrogen) was transformed with pET15b-orf880 using routine chemical transformation techniques. Protein expression was carried out by first inoculating a colony of the E. coli strain in 5 mL of LB media supplemented with 100 mg/L of carbenecillin and shaken overnight at 37° C. to produce a starter culture. This starter culture was used to inoculate 1 L of LB media supplemented with 100 mg/L of carbenecillin. The culture was shaken at 37° C. until an OD600 value of 0.6 was reached. The culture was placed on ice for 10 min before IPTG was added to a final concentration of 250 μM. The culture was then shaken at 18° C. for approximately 18 h. The culture was then centrifuged at 3,700 rpm for 20 min at 4° C. The pellet was then resuspended in 30 mL of buffer containing 100 mM sodium phosphate buffer at pH 7.2 supplemented with Bacterial ProteaseArrest (GBiosciences). The cells were then sonicated at 12 W on ice for 9 sec with 1.5 sec of sonication followed by 1.5 sec of rest. This procedure was repeated 5 times with one min intervals between each sonication cycle. The cell free extract was centrifuged at 10,000 rpm for 30 min at 4° C. 5 mL of Ni-NTA (Qiagen) was added to the supernatant and the mixture was gently stirred at 4° C. The slurry was passed over a column removing the resin from the lysate. The resin was then washed with 30 mL of buffer containing 100 mM sodium phosphate buffer at pH 7.2 plus 30 mM imidazole. Finally, the protein was eluted with 15 mL of 100 mM sodium phosphate buffer at pH 7.2 plus 250 mM imidazole. The protein solution was dialyzed with 200 volumes of 100 mM sodium phosphate buffer at pH 7.2. Protein concentration was determined using the Bradford assay (Biorad). 125 μg/mL of protein was obtained.
In order to assay the in vitro fatty acid substrate specificity of ORF880, potassium salts of the following fatty acids were prepared: tetradecanoic acid, hexadecanoic acid, octadecanoic acid, eicosanoic acid, and behenic acid (Sigma). The fatty acid solutions were made with 2% ethanol and 2% Tergitol solution (Sigma, St. Louis, Mo.) to a final concentration of 20 mM.
The kinetics of the decarboxylation reaction was determined using potassium octadecanoate. A 200 μL reaction was prepared with the following reactant concentrations: 1.25 μM of ORF880, 200 μM of potassium octadecanoate, […], and 100 mM sodium phosphate buffer at pH 7.2. […] Samples were analyzed using GC/MS using the alkane-1 splitless method, which is performed using the following parameters: run time: 20 min; column: HP-5-MS Part No. 19091S-433E (length of 30 meters; I.D.: 0.25 mm narrowbore; film: 0.25 μM); sample: standard ethyl acetate extraction; inject: 1 μL Agilent 6850 inlet; inlet: 300° C. splitless; carrier gas: helium; flow: 1.3 mL/min; oven temp: 100° C. hold 5 min, 320 at 20° C./min, 320 hold 5 min; det: Agilent 5975B VL MSD; det. temp: 300° C.; scan: 50-500 M/Z. Calibration curves were generated using 1-heptadecene dissolved in ethyl acetate. Based upon this analysis, the product production was determined to be linear from 5 min to 60 min. […]

ATCC 8456 cells = test: Fatty acid feeding of ATCC 8456 cells, α-olefins analyzed by GC-MS; type: cell-based, Jeotgalicoccus sp. ATCC 8456; conditions: fatty acid fed at 0.5 g/l (0.05%), 40-48 h at 30° C.; for α-olefin whose production increased upon fatty acid feeding: olefins not normally produced by ATCC 8456
Description: ATCC 8456 cells were grown in 15 mL TSBYE medium (3% Tryptic Soy Broth+0.5% Yeast Extract). Fatty acids were added to the culture medium at final concentrations of 0.5 g/l (0.05%). After growth for 40-48 h at 30° C., cells from 5 mL of culture were pelleted, resuspended in 1 mL methanol, sonicated for 30 min, and extracted with 4 mL hexane. After solvent evaporation, samples were resuspended in 0.1 mL hexane and analyzed by GC-MS.

| SMILES | effect of co-factor supplementation on α-olefin synthesis ([1]; co-factor at 1 mM) | Activity (nM alkene produced/min) (ORF880) | further results |
| --- | --- | --- | --- |
| Nc1ncnc2c1ncn2[C@@H]1O[C@H](COP(=O)(O)OP(=O)(O)OP(=O)(O)O)[C@@H](O)[C@H]1O [ATP] | no increase | – | – |
| CC(C)(COP(=O)(O)OP(=O)(O)OC[C@H]1O[C@@H](n2cnc3c(N)ncnc32)[C@H](O)[C@@H]1OP(=O)(O)O)[C@@H](O)C(=O)NCCC(=O)NCCS [CoA] | no increase | – | – |
| O=C(O)CN(CCN(CC(=O)O)CC(=O)O)CC(=O)O [EDTA] | – | – | effect on α-olefin synthesis when added to the reaction mixture ([1]; 10 mM, pH 7.5): no decrease |
| Cc1cc2c(cc1C)N(C[C@H](O)[C@H](O)[C@H](O)COP(=O)(O)OP(=O)(O)OC[C@H]1O[C@@H](n3cnc4c(N)ncnc43)[C@H](O)[C@@H]1O)c1[nH]c(=O)[nH]c(=O)c1N2 [FADH2] | no increase | – | – |
| [Mg+2] [Mg^2+] | – | – | effect of co-factor supplementation on α-olefin synthesis ([1]; 10 mM concentration): no increase |
| NC(=O)c1ccc[n+]([C@@H]2O[C@H](COP(=O)([O-])OP(=O)(O)OC[C@H]3O[C@@H](n4cnc5c(N)ncnc54)[C@H](O)[C@@H]3O)[C@@H](O)[C@H]2O)c1 [NAD+] | no increase | – | – |
| NC(=O)C1=CN([C@@H]2O[C@H](COP(=O)(O)OP(=O)(O)OC[C@H]3O[C@@H](n4cnc5c(N)ncnc54)[C@H](O)[C@@H]3O)[C@@H](O)[C@H]2O)C=CC1 [NADH] | no increase | – | – |
| NC(=O)c1ccc[n+]([C@@H]2O[C@H](COP(=O)([O-])OP(=O)(O)OC[C@H]3O[C@@H](n4cnc5c(N)ncnc54)[C@H](OP(=O)(O)O)[C@@H]3O)[C@@H](O)[C@H]2O)c1 [NADP+] | no increase | – | – |
| NC(=O)C1=CN([C@@H]2O[C@H](COP(=O)(O)OP(=O)(O)OC[C@H]3O[C@@H](n4cnc5c(N)ncnc54)[C@H](OP(=O)(O)O)[C@@H]3O)[C@@H](O)[C@H]2O)C=CC1 [NADPH] | no increase | – | – |
| C[S+](CC[C@H](N)C(=O)[O-])C[C@H]1O[C@@H](n2cnc3c(N)ncnc32)[C@H](O)[C@@H]1O (some centres unmarked) [SAM] | no increase | – | – |
| CCCCCCCCCCCCCCCCCCCCCC(=O)O [behenic acid] | – | 30.6 | – |
| CCCCCCCCCCCCCCCCCCCC(=O)O [eicosanoic acid] | – | 19.7 | α-olefin formed from the fatty acid by cell free extract [1]: 1-nonadecene; increase in 1-nonodecene production (ATCC 8456 cells; versus no fatty acid feeding): approximately 18 fold |
| CCCCCCCCCCCCCCCC(=O)O [hexadecanoic acid] | – | 181.9 | α-olefin whose production increased upon fatty acid feeding (ATCC 8456 cells): 1-heptadecene |
| CCCCCCCCCCCCCCCCCC(=O)O [octadecanoic acid] | – | 77.2 | α-olefin formed from the fatty acid by cell free extract [1]: 1-heptadecene; α-olefin whose production increased upon fatty acid feeding (ATCC 8456 cells): 1-pentadecene |
| CCCCCCCCCCCCCC(=O)O [tetradecanoic acid] | – | 22.9 | – |
